Structures are written as SMILES.

Here are results for one compound from article PMC8924551, “Functional Characterization of a Flavone Synthase That Participates in a Kumquat Flavone Metabolon” (Frontiers in Plant Science, 2022).

The test system of the assay is T1, FcFNSII-2.
T1 construct: microsomes of Saccharomyces cerevisiae WAT11 co-expressing Arabidopsis ATR1 P450 reductase
The experiment in a line: yeast microsome assay, UPLC-Q-TOF-MS, Michaelis-Menten fit. The assay is classed as biochemical, Fortunella crassifolia. The following applies: 1 mM NADPH, 100 mM Tris/HCl pH 7.0, 30°C, 1 h; product apigenin.

`O=C1C[C@@H](c2ccc(O)cc2)Oc2cc(O)cc(O)c21` [naringenin]: the Km (usually the substrate concentration at which the rate is half of its maximum) came out at 3.77 µM.
